Laboratory results reported in ChEMBL document CHEMBL1201862, “PubChem BioAssay data set” (2004).
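Compound exposure: 48 hours, 5 concentrations, 96-well plates. GI50 marks 50% less growth.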 Activity calls are given as the source filed them. No stated cut-off is given here; in the data, active = GI50 up to about 1.1 µM and inactive = higher.

What was measured:
Experiment in all cases: NCI anticancer screen, dose series, 48 h
CCRF-CEM = tested on: CCRF-CEM
SN12C = tested on: SN12C
DU-145 = tested on: DU-145
Hs-578T = tested on: Hs-578T
OVCAR-5 = tested on: OVCAR-5
SW-620 = tested on: SW-620
UACC-62 = tested on: UACC-62
PC-3 = tested on: PC-3
SK-OV-3 = tested on: SK-OV-3
HOP-92 = tested on: HOP-92
SNB-19 = tested on: SNB-19
MDA-MB-231 = tested on: MDA-MB-231
NCI-H460 = tested on: NCI-H460
HL-60 = tested on: HL-60
NCI/ADR-RES = tested on: NCI/ADR-RES
CAKI-1 = tested on: CAKI-1
A549 = tested on: A549
HCC 2998 = tested on: HCC 2998
Malme-3M = tested on: Malme-3M

SMILES | GI50 (CCRF-CEM) | GI50 (SN12C) | GI50 (DU-145) | GI50 (Hs-578T) | GI50 (OVCAR-5) | GI50 (SW-620) | GI50 (UACC-62) | GI50 (PC-3) | GI50 (SK-OV-3) | GI50 (HOP-92) | GI50 (SNB-19) | GI50 (MDA-MB-231) | GI50 (NCI-H460) | GI50 (HL-60) | GI50 (NCI/ADR-RES) | GI50 (CAKI-1) | GI50 (A549) | GI50 (HCC 2998) | GI50 (Malme-3M)
O=c1[nH]c2ccccc2c(=O)n1/N=C/c1ccc(O)cc1 | 66.4 µM (inactive) | 55.2 µM (inactive) | > 100 µM (inactive) | 31.7 µM (inactive) | > 100 µM (inactive) | > 100 µM (inactive) | 42.4 µM (inactive) | 73.5 µM (inactive) | > 100 µM (inactive) | 26.1 µM (inactive) | 36 µM (inactive) | 45.5 µM (inactive) | > 100 µM (inactive) | > 100 µM (inactive) | 50.9 µM (inactive) | > 100 µM (inactive) | > 100 µM (inactive) | – | –
NC1=Nc2ncccc2C(=O)NN1 | > 10 µM (inactive) | > 10 µM (inactive) | > 10 µM (inactive) | 0.382 µM (active) | > 10 µM (inactive) | > 10 µM (inactive) | > 10 µM (inactive) | > 10 µM (inactive) | > 10 µM (inactive) | > 10 µM (inactive) | > 10 µM (inactive) | > 10 µM (inactive) | > 10 µM (inactive) | > 10 µM (inactive) | – | – | > 10 µM (inactive) | 8.89 µM (inactive) | > 10 µM (inactive)
CC(O)C1OC(O)C2OC(C)(C)OC12 (centres undefined) | > 100 µM (inactive) | > 100 µM (inactive) | > 100 µM (inactive) | > 100 µM (inactive) | > 100 µM (inactive) | > 100 µM (inactive) | > 100 µM (inactive) | > 100 µM (inactive) | > 100 µM (inactive) | – | > 100 µM (inactive) | > 100 µM (inactive) | > 100 µM (inactive) | > 100 µM (inactive) | > 100 µM (inactive) | > 100 µM (inactive) | > 100 µM (inactive) | – | –
Nc1c(S(=O)(=O)O)cc(S(=O)(=O)O)c2ccc(/N=N/c3ccccc3)c(O)c12 | > 100 µM (inactive) | > 100 µM (inactive) | > 100 µM (inactive) | > 100 µM (inactive) | > 100 µM (inactive) | > 100 µM (inactive) | > 100 µM (inactive) | > 100 µM (inactive) | > 100 µM (inactive) | > 100 µM (inactive) | > 100 µM (inactive) | > 100 µM (inactive) | > 100 µM (inactive) | > 100 µM (inactive) | > 100 µM (inactive) | > 100 µM (inactive) | > 100 µM (inactive) | – | > 100 µM (inactive)
O=C(O)c1cncc(C(=O)O)c1 | > 100 µM (inactive) | > 100 µM (inactive) | > 100 µM (inactive) | > 100 µM (inactive) | > 100 µM (inactive) | > 100 µM (inactive) | > 100 µM (inactive) | > 100 µM (inactive) | > 100 µM (inactive) | – | > 100 µM (inactive) | > 100 µM (inactive) | > 100 µM (inactive) | > 100 µM (inactive) | > 100 µM (inactive) | > 100 µM (inactive) | > 100 µM (inactive) | – | > 100 µM (inactive)
O=C1c2c(Br)sc(Br)c2[C@@H](Cl)[C@H]1Cl | 3.18 µM (inactive) | 8.87 µM (inactive) | 18.7 µM (inactive) | 36.6 µM (inactive) | 20.8 µM (inactive) | 5.08 µM (inactive) | 18.2 µM (inactive) | 18.7 µM (inactive) | 19.4 µM (inactive) | 21 µM (inactive) | 18.9 µM (inactive) | 19.5 µM (inactive) | 19.4 µM (inactive) | 3.27 µM (inactive) | 33.1 µM (inactive) | 20.7 µM (inactive) | 29 µM (inactive) | – | 19.1 µM (inactive)
O=C(O)C(=Cc1ccnc2ccccc12)C(=O)O | > 100 µM (inactive) | > 100 µM (inactive) | > 100 µM (inactive) | > 100 µM (inactive) | > 100 µM (inactive) | > 100 µM (inactive) | > 100 µM (inactive) | > 100 µM (inactive) | > 100 µM (inactive) | > 100 µM (inactive) | > 100 µM (inactive) | > 100 µM (inactive) | > 100 µM (inactive) | > 100 µM (inactive) | > 100 µM (inactive) | > 100 µM (inactive) | > 100 µM (inactive) | – | > 100 µM (inactive)
COC(=O)C12Oc3ccc(-c4ccc5c(c4O)C(O)=C4C(=O)CC(C)C(O)C4(C(=O)OC)O5)c(O)c3C(O)=C1C(=O)CC(C)C2O (centres undefined) | 0.0255 µM (active) | 0.121 µM (active) | 0.547 µM (active) | 0.135 µM (active) | 0.119 µM (active) | 0.0889 µM (active) | 0.0708 µM (active) | 0.0764 µM (active) | 0.103 µM (active) | 0.466 µM (active) | 0.583 µM (active) | 0.63 µM (active) | 0.0421 µM (active) | 0.102 µM (active) | 0.485 µM (active) | 0.346 µM (active) | 0.0702 µM (active) | – | 0.0217 µM (active)
